Assay results reported in patent US11008311B2, “Potassium salt of benzimidazole compound and preparation method therefor, composition and application thereof” (WUHAN LL SCIENCE AND TECHNOLOGY DEVELOPMENT CO., LTD., priority 2016, dated 2021).
Values after ≈ are worked out from the molar mass of the structure shown.

Key:
[1] = Determination of equilibrium solubility; assay type: physicochemical; settings: for solubility thermodynamic at 24 h: 37 °C, thermodynamic from solid, 37±2° C., based on azilsartan
[2] = tested on: spontaneously hypertensive rats; assay: Antihypertensive efficacy test in spontaneously hypertensive rats (systolic blood pressure and heart rate by implanted blood pressure sensor); assay type: in vivo, rat; settings: SHR, intragastric, 1 mg/kg as azilsartan; for Change in heart rate / Changes in systolic blood pressure: mean ± standard error
Protocol: 12-week-old spontaneously hypertensive rats (hereinafter referred to as SHR, purchased from Beijing Vital River Laboratory Animal Technology Co., Ltd.) were anesthetized with 2.5% sodium pentobarbital for intraperitoneal injection. The blood pressure sensing catheter of a blood pressure implant was inserted into the abdominal aorta, the implant was fixed to the abdominal wall, and the postoperative daily care was performed after suturing. Animals with systolic blood pressure exceeding 160 mmHg were selected into a total of 3 groups with 8 animals in each group. The control group was given 0.5% CMC-Na (sodium carboxymethylcellulose); in the OR01019 group and the QR01019K group, the compounds were dissolved in 0.5% CMC-Na, and the doses were all administered at an effective dose of 1 mg/kg of azilsartan with an administration volume of 4 mL/kg by intragastric administration. The systolic blood pressure and heart rate of the animals before the administration were used as reference values, and the changes of systolic blood pressure and heart rate of SHR at each time point before and after administration were compared, in which the systolic blood pressure and heart rate of SHR were measured three times at each time point and then averaged.

[3] = aqueous buffer, pH 4.5 (acetate buffer)
[4] = aqueous buffer, pH 6.8 (phosphate buffer)
[5] = aqueous buffer, pH 7.8 (phosphate buffer)
[6] = simulated gastric fluid, pH 1.0 (hydrochloric acid solution)
[7] = before administration (reference value)

SMILES	solubility thermodynamic at 24 h [1, 3] [µg/mL]	solubility thermodynamic at 24 h [1, 4] [µg/mL]	solubility thermodynamic at 24 h [1, 5] [µg/mL]	solubility thermodynamic at 24 h [1, 6] [µg/mL]	solubility thermodynamic at 24 h ([1]; Pure water) [µg/mL]	Change in heart rate ([2]; 1 hour after administration) [times/minute]	Changes in systolic blood pressure ([2]; 1 hour after administration) [mmHg]	Change in heart rate ([2]; 3 hours after administration) [times/minute]	Changes in systolic blood pressure ([2]; 3 hours after administration) [mmHg]	Change in heart rate ([2]; 5 hours after administration) [times/minute]	Changes in systolic blood pressure ([2]; 5 hours after administration) [mmHg]	Change in heart rate ([2]; 7 hours after administration) [times/minute]	Changes in systolic blood pressure ([2]; 7 hours after administration) [mmHg]	Change in heart rate ([2]; 10 hours after administration) [times/minute]	Changes in systolic blood pressure ([2]; 10 hours after administration) [mmHg]	Change in heart rate ([2]; 24 hours after administration) [times/minute]	Changes in systolic blood pressure ([2]; 24 hours after administration) [mmHg]	Change in heart rate [2, 7] [times/minute]	Changes in systolic blood pressure [2, 7] [mmHg]	further results
CCOc1nc2cccc(C(=O)OC(C)OC(=O)OCc3nc(C)c(C)nc3C)c2n1Cc1ccc(-c2ccccc2-c2noc(=O)[nH]2)cc1 (centres unmarked) [QR01019, reference compound]	0.06 (≈ 0.0884 µM)	1.6 (≈ 2.36 µM)	13.6 (≈ 20 µM)	2.01 (≈ 2.96 µM)	0.74 (≈ 1.09 µM)	−3.4 ± 2.6	−4.9 ± 4.8	−2.33 ± 2.6	−22.0 ± 3.6	−6.5 ± 2.8	−30.5 ± 3.5	−6.2 ± 3.0	−38.8 ± 2.3	−12.3 ± 2.8	−33.0 ± 1.7	−6.7 ± 2.6	−10.2 ± 2.1	0.0 ± 0.0	0.0 ± 0.0	–
CCOc1nc2cccc(C(=O)OC(C)OC(=O)OCc3nc(C)c(C)nc3C)c2n1Cc1ccc(-c2ccccc2-c2noc(=O)[n-]2)cc1.[K+] (centres unmarked) [QR01019K]	2.3	25.9	400	18.7	542	−3.6 ± 2.4	−7.0 ± 3.4	−5.0 ± 2.5	−34.3 ± 1.9	−10.1 ± 3.0	−46.5 ± 2.5	−17.5 ± 3.0	−49.4 ± 4.1	−25.4 ± 2.4	−45.3 ± 3.3	−28.6 ± 8	−25.9 ± 3.4	0.0 ± 0.0	0.0 ± 0.0	concentrations in acidic and neutral media compared with QR01019 (in words) ([1]; equilibrium solubility, Table 5): much higher than QR01019; antihypertensive effect compared with QR01019 (in words) [2]: more potent and longer-lasting antihypertensive effect than QR01019; effect of reducing heart rate compared with QR01019 (in words) [2]: more potent and longer-lasting effect of reducing heart rate than QR01019
